Data: patent publication US20080064736A1, “Substituted 2-Pyrrolidone Derivatives as Fungicides and Insecticides” (Bayer Cropscience AG, priority 2004, published 2008)

Legend:
sphaerotheca fuliginea = test: Sphaerotheca-test (cucumber); assay type: in vivo; conditions: protective, application rate 500 ppm, evaluated 7 days after inoculation
Podosphaera leucotricha = test: Podosphaera test (apple)/protective; assay type: in vivo; conditions: protective, application rate 100 g/ha, evaluated 7 days after inoculation
Procedure: Podosphaera Test (Apple)/Protective
(§1) To produce a suitable preparation of active compound, 1 part by weight of active compound is mixed with the stated amounts of solvent and emulsifier, and the concentrate is diluted with water to the desired concentration.
To test for protective activity, young plants are sprayed with the preparation of active compound at the stated rate of application. After the spray coating has dried on, the plants are inoculated with an aqueous spore suspension of the causal agent of apple mildew (Podosphaera leucotricha). The plants are then placed in a greenhouse at approximately 23° C. and a relative atmospheric humidity of approximately 70%.
The test is evaluated 7 days after the inoculation. 0% means an efficacy which corresponds to that of the control, while an efficacy of 100% means that no disease is observed.

Venturia inaequalis = test: Venturia test (apples)/protective; assay type: in vivo; conditions: protective, application rate 100 g/ha, evaluated 10 days after inoculation
Procedure: Venturia Test (Apples)/Protective
as §1
To test for protective activity, young plants are sprayed with the preparation of active compound at the stated rate of application. After the spray coating has dried on, the plants are inoculated with an aqueous conidia suspension of the causal agent of apple scab (Venturia inaequalis) and then remain for 1 day in an incubation cabinet at approximately 20° C. and a relative atmospheric humidity of 100%.
The plants are then placed in a greenhouse at approximately 21° C. and a relative atmospheric humidity of approximately 90%.
The test is evaluated 10 days after the inoculation. 0% means an efficacy which corresponds to that of the control, while an efficacy of 100% means that no disease is observed.

Botrytis cinerea = test: Botrytis test (beans)/protective; assay type: in vivo; conditions: protective, application rate 500 g/ha, lesion size 2 days after inoculation
Procedure: Botrytis Test (Beans)/Protective
as §1
To test for protective activity, young plants are sprayed with the preparation of active compound. After the spray coating has dried on, 2 small pieces of agar covered with growth of Botrytis cinerea are placed on each leaf. The inoculated plants are placed in a darkened chamber at 20° C. and a relative atmospheric humidity of 100%.
2 days after the inoculation, the size of the lesions on the leaves is evaluated. 0% means an efficacy which corresponds to that of the control, while an efficacy of 100% means that no disease is observed.

Spodoptera frugiperda = test: Spodoptera frugiperda-test (sensible strain); assay type: in vivo; conditions: cabbage leaves dipped, larvae, after six days
Procedure: Spodoptera frugiperda-Test (Sensible Strain)
Pieces of cabbage leaves (Brassica oleracea) are treated by being dipped into the preparation of the active compound of the desired concentration and are infested with larvae of the fall army worm (Spodoptera frugiperda) as long as the leaves are still moist.
After six days the mortality in % is determined. 100% means that all the caterpillars have been killed; 0% means that none of the caterpillars have been killed.

| Compound | efficacy (sphaerotheca fuliginea) [%] | chromatographic logP | other results |
| --- | --- | --- | --- |
| CCCCCC[C@H]1C(=O)N[C@@]2([C@@H](O)C(C)C)C(=O)O[C@@]12C [Example 8, (1R,4R,5S)-4-hexyl-1-[(1S)-1-hydroxy-2-methylpropyl]-5-methyl-6-oxa-2-azabicyclo[3.2.0]heptane-3,7-dione] | 70 |  |  |
| CCCCCC[C@H]1C(=O)N[C@@]2([C@@H](O)[C@@H]3C=CCCC3)C(=O)O[C@@]12C [Example 1, (1R,4R,5S)-1-[(S)-(1S)-2-cyclohexen-1-yl(hydroxy)methyl]-4-hexyl-5-methyl-6-oxa-2-azabicyclo[3.2.0]heptane-3,7-dione] | 70 |  | efficacy (Podosphaera leucotricha): 100%; efficacy (Venturia inaequalis): 100%; efficacy (Botrytis cinerea): more than 90%; efficacy (mortality) (Spodoptera frugiperda): 100% |
| CCCCCC[C@@H]1C(=O)N[C@@]2([C@@H](O)C(C)C)C(=O)O[C@@]12C [(1R,4S,5S)-4-hexyl-1-[(1S)-1-hydroxy-2-methylpropyl]-5-methyl-6-oxa-2-azabicyclo[3.2.0]heptane-3,7-dione] |  | 2.79 |  |
| CCCCCC[C@H]1C(=O)N[C@@]2([C@@H](O)C(C)C)C(=O)O[C@@]12C [(1R,4R,5S)-4-hexyl-1-[(1S)-1-hydroxy-2-methylpropyl]-5-methyl-6-oxa-2-azabicyclo[3.2.0]heptane-3,7-dione] |  | 2.87 |  |
